Consider nine molecules from ChEMBL document CHEMBL5465560, “Selectivity Literature for EUbOPEN Chemogenomic Library” (2024).

The target in assay [1] is Receptor-interacting serine/threonine-protein kinase 3 (Homo sapiens) (UniProt Q9Y572). Briefly: Selectivity interaction (Kinase panel (KiNativ target engagement assay in Jurkat cells)) EUB0001635a RIPK3. The assay is classed as cell-based. The following applies: Selectivity number of off-targets 0.0, Selectivity number of targets 233.0, Source Knowledge https://www.sciencedirect.com/science/article/pii/S2451945619300674?via%3Dihub, at 1 µM.

In assay [2] the target is Myosin light chain kinase 2, skeletal/cardiac muscle (Homo sapiens) (UniProt Q9H1R3). Briefly: Selectivity interaction (SelectScreen profiling (Invitrogen)) EUB0000607a MYLK2. The following applies: at 2 µM.
Assay [3] has as its target G protein-coupled receptor kinase 6 (Homo sapiens) (UniProt P43250). Nature of the assay: Selectivity interaction (ActivX KiNativ screen (ex vivo kinase selectivity in human PBMCs)) EUB0001619a GRK6. The assay is classed as cell-based. The following applies: PBMC, at 1 µM.
The target in assay [4] is Cyclin-dependent kinase 5 (Homo sapiens, UniProt Q00535). Briefly: Selectivity interaction (KinomeScan (DiscoverX)) EUB0001619a CDK5. The following applies: at 1 µM.
Assay [5] deals with Tyrosine-protein kinase Fyn (Homo sapiens) (UniProt P06241). Briefly: Selectivity interaction (ActivX KiNativ screen (kinase selectivity in THP-1 cell lysates)) EUB0000639a FYN. Format: subcellular. The following applies: lysate, at 0.04 µM.
Assay [6] deals with T1, Mitogen-activated protein kinase kinase kinase 2 (Homo sapiens) (UniProt Q9Y2U5).
T1 sequence (whole entry): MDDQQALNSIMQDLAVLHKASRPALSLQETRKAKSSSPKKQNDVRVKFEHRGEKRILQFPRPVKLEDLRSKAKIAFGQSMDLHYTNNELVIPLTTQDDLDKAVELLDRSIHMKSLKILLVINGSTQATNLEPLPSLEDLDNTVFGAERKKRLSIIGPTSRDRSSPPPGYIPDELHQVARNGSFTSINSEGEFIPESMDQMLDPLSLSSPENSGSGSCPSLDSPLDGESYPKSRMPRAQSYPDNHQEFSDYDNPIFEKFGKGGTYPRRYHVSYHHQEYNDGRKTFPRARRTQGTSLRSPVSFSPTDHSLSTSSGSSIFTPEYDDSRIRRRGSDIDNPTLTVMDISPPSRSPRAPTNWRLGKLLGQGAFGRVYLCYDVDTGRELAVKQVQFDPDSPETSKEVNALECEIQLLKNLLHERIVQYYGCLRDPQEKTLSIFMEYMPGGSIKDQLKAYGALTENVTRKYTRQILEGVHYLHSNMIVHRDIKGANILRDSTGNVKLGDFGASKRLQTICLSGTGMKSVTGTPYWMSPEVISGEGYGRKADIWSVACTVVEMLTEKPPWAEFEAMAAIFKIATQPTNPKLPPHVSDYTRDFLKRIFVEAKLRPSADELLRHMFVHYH
Nature of the assay: Selectivity interaction (ActivX KiNativ screen (kinase selectivity in THP-1 cell lysates)) EUB0000639a MAP3K2. The assay is classed as subcellular. The following applies: lysate, at 0.04 µM.

Assay [7] deals with T2, Tyrosine-protein kinase ITK/TSK (Homo sapiens) (UniProt Q08881).
T2 sequence (whole entry): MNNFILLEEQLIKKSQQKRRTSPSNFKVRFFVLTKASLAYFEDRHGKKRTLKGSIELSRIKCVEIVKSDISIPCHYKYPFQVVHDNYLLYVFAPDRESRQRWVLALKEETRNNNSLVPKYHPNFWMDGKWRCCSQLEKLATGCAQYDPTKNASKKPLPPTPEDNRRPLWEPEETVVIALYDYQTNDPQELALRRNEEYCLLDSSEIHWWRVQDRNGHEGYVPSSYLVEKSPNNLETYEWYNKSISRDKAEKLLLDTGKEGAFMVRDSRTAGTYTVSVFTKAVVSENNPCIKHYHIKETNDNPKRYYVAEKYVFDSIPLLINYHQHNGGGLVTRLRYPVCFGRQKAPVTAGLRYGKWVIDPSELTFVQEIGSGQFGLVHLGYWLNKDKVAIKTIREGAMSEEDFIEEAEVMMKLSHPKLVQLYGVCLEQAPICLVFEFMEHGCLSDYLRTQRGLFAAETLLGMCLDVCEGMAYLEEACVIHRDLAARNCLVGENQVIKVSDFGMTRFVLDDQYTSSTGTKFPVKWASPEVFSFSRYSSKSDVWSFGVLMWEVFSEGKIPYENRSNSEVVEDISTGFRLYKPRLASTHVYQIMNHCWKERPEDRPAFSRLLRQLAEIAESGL
Briefly: Selectivity interaction (KinomeScan (DiscoverX)) EUB0001049a ITK. The following applies: at 1 µM.

The test system of assay [8] is NPM/ALK (Nucleophosmin/ALK tyrosine kinase receptor) (Homo sapiens), Q9UM73+P06748 [F1174L]. Briefly: (§1) Selectivity interaction (ProQinase) EUB0000171b ALK. Format: protein assay.
Assay [9] has as its system EML4-ALK (Homo sapiens), Q9UM73+Q9HC35 [UNDEFINED MUTATION]. Described as §1. The following applies: at 5 µM. The assay is classed as protein assay.
The target in the next assay is EML4-ALK (Homo sapiens) (UniProt Q9UM73+Q9HC35). The description is as §1. Format: protein assay.
Chain of EML4-ALK (Homo sapiens) (Q9HC35 whole entry partner): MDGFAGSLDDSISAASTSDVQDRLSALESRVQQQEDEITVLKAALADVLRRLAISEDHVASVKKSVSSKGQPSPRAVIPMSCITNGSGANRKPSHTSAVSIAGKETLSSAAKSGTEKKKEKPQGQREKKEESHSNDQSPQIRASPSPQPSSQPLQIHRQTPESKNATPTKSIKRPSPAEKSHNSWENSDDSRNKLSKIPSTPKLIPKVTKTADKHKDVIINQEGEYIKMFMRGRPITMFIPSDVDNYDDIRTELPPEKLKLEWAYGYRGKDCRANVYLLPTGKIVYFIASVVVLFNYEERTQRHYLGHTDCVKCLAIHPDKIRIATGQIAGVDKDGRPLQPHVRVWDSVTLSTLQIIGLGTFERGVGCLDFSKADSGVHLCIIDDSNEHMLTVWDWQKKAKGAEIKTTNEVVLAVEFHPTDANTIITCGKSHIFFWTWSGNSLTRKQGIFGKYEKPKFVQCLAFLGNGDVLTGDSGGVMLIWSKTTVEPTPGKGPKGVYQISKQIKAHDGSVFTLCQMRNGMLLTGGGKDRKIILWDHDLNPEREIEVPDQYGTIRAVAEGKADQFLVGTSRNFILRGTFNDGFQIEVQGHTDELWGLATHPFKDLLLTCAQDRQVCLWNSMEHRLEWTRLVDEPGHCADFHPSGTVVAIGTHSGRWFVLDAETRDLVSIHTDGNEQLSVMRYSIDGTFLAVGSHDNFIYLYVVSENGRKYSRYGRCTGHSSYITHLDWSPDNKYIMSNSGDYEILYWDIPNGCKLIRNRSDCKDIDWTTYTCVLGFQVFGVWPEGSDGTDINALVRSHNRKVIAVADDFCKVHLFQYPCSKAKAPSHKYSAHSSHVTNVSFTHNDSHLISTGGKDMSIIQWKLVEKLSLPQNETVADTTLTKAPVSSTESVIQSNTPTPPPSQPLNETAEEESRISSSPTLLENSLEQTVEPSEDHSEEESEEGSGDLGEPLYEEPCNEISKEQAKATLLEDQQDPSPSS
Chain of EML4-ALK (Homo sapiens) (Q9UM73 19-1620 limits assumed): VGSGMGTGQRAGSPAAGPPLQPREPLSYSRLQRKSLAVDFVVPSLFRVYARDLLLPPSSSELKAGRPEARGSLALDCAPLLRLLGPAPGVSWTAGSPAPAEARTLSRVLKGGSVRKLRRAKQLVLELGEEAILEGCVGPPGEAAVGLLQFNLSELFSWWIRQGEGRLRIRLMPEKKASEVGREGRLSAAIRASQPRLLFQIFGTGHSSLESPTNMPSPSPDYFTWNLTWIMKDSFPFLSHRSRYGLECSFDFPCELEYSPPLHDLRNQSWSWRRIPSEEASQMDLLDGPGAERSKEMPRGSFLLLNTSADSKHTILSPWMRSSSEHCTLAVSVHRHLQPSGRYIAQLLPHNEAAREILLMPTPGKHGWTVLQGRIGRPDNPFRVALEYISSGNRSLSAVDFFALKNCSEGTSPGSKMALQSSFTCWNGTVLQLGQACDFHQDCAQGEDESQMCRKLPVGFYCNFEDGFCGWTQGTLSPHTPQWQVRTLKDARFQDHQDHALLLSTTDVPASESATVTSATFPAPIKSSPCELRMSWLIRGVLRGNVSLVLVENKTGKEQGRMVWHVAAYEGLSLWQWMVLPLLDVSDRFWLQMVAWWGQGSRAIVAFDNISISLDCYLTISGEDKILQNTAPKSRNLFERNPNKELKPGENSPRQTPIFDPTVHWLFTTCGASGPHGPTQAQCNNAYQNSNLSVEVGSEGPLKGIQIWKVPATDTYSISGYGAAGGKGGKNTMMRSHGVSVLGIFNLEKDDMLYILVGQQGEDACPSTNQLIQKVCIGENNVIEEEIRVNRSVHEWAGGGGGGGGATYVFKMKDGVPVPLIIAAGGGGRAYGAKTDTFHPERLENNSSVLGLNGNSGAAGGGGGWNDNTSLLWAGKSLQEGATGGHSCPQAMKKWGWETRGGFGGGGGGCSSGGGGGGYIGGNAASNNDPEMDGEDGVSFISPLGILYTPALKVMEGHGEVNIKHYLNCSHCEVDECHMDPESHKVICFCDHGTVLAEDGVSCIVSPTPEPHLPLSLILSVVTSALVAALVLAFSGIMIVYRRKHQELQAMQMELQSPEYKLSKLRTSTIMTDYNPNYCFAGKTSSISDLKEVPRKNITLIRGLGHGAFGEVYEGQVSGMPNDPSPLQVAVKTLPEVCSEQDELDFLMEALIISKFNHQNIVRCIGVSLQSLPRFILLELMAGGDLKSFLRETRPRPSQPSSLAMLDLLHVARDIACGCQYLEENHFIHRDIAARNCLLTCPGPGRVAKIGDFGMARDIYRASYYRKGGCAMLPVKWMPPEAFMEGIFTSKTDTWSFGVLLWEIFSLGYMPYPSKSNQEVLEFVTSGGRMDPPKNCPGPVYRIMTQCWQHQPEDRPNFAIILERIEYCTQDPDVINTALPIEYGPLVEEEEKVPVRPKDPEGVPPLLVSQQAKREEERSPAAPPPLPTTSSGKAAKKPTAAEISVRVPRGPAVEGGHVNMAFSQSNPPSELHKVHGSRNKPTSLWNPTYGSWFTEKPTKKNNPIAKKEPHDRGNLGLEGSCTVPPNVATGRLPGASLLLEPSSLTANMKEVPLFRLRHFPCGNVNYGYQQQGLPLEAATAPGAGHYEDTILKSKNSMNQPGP
Assay [10] has as its target Serine/threonine-protein kinase MRCK alpha (Homo sapiens) (UniProt Q5VT25). Nature of the assay: Selectivity interaction (KinomeScan (DiscoverX)) EUB0000045b CDC42BPA.
In assay [11] the target is T3, Serine/threonine-protein kinase 17B (Homo sapiens) (UniProt O94768).
T3 sequence (whole entry): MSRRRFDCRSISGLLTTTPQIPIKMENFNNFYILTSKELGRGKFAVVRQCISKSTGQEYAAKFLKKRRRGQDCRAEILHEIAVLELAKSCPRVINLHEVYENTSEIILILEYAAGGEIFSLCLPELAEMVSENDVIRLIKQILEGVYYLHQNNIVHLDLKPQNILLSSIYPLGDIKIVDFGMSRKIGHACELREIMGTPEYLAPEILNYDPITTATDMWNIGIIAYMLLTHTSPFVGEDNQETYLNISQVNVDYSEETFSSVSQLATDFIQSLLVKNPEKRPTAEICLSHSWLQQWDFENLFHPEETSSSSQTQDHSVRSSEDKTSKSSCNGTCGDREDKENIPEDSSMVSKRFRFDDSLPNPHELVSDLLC
Nature of the assay: Selectivity interaction (KinomeScan (DiscoverX)) EUB0000618a STK17B. The following applies: at 10 µM.

Assay [12] deals with T4, cAMP-dependent protein kinase catalytic subunit PRKX (Homo sapiens) (UniProt P51817).
T4 sequence (whole entry): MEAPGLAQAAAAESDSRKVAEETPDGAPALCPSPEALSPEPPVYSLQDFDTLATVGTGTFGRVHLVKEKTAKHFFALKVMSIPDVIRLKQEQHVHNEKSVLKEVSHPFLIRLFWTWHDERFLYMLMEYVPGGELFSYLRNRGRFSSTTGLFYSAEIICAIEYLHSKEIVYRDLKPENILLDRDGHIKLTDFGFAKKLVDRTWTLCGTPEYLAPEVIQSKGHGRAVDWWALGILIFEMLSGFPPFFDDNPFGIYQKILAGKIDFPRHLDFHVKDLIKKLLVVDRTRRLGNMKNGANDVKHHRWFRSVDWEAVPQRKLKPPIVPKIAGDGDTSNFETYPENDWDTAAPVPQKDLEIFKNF
Nature of the assay: Selectivity interaction (Upstate Kinase Profiler service (Millipore)) EUB0000056c PRKX. The following applies: at 1 µM.

Chain of Serine/threonine-protein kinase MRCK alpha (Homo sapiens) (Q5VT25 whole entry): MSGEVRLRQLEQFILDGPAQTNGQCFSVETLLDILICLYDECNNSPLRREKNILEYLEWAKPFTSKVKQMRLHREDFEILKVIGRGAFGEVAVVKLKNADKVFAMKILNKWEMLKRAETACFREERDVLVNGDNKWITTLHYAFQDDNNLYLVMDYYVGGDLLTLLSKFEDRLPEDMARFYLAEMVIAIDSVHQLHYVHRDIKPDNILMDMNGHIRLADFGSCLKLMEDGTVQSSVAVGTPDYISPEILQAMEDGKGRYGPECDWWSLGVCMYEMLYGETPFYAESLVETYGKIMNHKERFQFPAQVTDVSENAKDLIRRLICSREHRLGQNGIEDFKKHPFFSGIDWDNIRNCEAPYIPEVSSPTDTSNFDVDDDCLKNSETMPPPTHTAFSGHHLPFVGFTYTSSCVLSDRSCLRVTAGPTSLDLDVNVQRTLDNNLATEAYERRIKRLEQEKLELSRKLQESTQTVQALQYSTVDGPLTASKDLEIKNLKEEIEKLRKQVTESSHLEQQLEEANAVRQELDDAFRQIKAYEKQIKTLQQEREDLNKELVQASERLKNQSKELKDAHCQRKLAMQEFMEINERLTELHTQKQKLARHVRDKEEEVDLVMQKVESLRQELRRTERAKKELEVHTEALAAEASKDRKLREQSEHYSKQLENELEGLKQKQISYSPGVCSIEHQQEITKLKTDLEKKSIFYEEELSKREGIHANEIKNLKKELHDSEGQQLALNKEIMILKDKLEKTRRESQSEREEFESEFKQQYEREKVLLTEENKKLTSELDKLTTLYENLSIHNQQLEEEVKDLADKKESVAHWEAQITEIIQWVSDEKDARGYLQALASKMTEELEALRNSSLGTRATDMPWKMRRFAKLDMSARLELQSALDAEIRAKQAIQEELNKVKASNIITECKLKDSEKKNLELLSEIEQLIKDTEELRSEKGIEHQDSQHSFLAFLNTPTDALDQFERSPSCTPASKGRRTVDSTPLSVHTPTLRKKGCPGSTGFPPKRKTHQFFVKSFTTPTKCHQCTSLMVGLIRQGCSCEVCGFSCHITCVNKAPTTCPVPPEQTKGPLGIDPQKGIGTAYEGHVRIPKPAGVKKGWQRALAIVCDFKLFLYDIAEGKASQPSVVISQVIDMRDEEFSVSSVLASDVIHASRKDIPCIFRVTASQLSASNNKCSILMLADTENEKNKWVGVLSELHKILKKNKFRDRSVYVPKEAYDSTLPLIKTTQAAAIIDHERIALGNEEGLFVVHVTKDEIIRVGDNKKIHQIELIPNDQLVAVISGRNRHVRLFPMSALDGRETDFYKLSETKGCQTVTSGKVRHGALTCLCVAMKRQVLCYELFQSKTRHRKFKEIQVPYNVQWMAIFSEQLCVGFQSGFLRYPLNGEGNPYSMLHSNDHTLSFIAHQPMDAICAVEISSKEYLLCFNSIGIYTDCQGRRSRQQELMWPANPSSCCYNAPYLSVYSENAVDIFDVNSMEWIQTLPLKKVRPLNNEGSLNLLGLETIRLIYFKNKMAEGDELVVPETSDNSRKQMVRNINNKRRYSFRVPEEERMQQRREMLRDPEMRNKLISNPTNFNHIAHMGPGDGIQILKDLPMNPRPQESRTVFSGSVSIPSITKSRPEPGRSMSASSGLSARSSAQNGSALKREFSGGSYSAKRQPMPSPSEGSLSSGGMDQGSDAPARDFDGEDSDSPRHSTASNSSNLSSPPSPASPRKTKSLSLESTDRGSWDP
Chain of G protein-coupled receptor kinase 6 (Homo sapiens) (P43250 whole entry, looked up): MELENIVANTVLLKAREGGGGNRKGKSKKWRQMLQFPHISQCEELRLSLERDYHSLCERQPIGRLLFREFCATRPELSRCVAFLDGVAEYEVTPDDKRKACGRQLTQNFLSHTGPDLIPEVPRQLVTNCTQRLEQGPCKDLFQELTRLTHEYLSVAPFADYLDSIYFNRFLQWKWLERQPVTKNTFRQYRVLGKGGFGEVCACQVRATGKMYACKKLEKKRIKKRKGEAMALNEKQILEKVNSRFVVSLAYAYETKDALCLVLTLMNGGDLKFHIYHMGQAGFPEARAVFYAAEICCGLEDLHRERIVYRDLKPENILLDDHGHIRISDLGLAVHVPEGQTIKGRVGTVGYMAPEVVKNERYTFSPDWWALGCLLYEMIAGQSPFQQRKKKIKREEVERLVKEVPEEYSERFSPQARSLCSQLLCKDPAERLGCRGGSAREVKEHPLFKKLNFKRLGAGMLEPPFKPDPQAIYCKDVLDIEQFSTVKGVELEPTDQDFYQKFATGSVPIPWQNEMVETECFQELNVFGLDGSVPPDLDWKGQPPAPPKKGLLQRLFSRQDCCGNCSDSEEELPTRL

In the case of `C=CC(=O)Nc1ccc(C(=O)Nc2[nH]nc3c2CN(C(=O)N[C@H](CN(C)C)c2ccccc2)C3(C)C)cc1`, the % of engagement in [1] was -0.8%.

On to `CNC(=O)Nc1ccc(-c2nc(N3CC4CCC(C3)O4)c3cnn(C4CCC5(CC4)OCCO5)c3n2)cc1`, for which the % of inhibition in assay [2] worked out at 8%.

`N#Cc1cccc(-c2c[nH]c3ncnc(N4CCOCC4)c23)c1`: in assay [3], the % of inhibition is 11%. Further, the % of control in [4] stood at 92%.

For `CC[C@@H]1[C@H](F)C(=O)N[C@@H]1COc1nccc2cc(C(N)=O)c(OC)cc12` [ZIMLOVISERTIB], the % of inhibition in assay [5] was -0.2%; in assay [6], 1.8%.

In [7], `COc1cc(Nc2nc(C)cc(-c3cnn4nc(OC)ccc34)n2)cc(C(F)(F)F)c1` returned a % of control of 82%.

As for `C=CC(=O)Nc1cccc(C(=O)Nc2ccc(Nc3cc(-c4[nH]c(SC)nc4C)ccn3)cc2)c1`, the % of control in assay [8] (at 1 µM) is 104%; in assay [8] (at 5 µM), 106%; in [9], 80%; on EML4-ALK (Homo sapiens) (at 1 µM) it was 91%; at EML4-ALK (Homo sapiens) (at 5 µM), 89%.

With `C=CC(=O)Nc1cc(-n2c(=O)ccc3cnc4ccc(-c5ccc(NS(C)(=O)=O)cc5)cc4c32)ccc1C`, the % of control in assay [10] (at 1 µM) stood at 100%; in assay [10] (at 10 µM), 96%.

Take `O[C@H]1CC[C@H](Nc2ncc3nc(Nc4c(F)cc(F)cc4F)n([C@H]4CCOC4)c3n2)CC1`: in [11], the % of control is 70%.

In the case of `Cc1ccc(-c2ccc3c(ccc4sc5c(c43)NC[C@@H](C)NC5=O)n2)cn1`, in [12], the % of inhibition was found to be 8%.
